Patent publication US20020111274A1, “1-alkyl-3-[1-(substituted phenyl) benzotriazol-6-yl] uracils” (BASF Aktiengesellschaft, priority 2000, published 2002)

Columns and labels:
Set-up in all cases: scale not given here
[1] = tested on: AMBEL Ragweed, Common; assay: Postemergence herbicidal evaluation, AMBEL; type: in vivo, Ambrosia artemisifolia, L.; settings: postemergence spray, rated about two-three weeks after treatment
Outline: (§1)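 Plants are raised for roughly two weeks, then treated postemergence with compound dispersed in acetone/water (80/20) plus 1.0% seed oil adjuvant, at rates of about 0.006 kg to 0.400 kg per hectare. After greenhouse care, damage is scored two to three weeks later.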

[2] = tested on: ORYSAT Rice, Tebonnet; assay: Postemergence herbicidal evaluation, ORYSAT; type: in vivo, Oryza sativa, (L.); settings: postemergence spray, rated about two-three weeks after treatment
Outline: as §1

[3] = tested on: ZEAMX Corn, Field; assay: Postemergence herbicidal evaluation, ZEAMX; type: in vivo, Zea mays, L. (Sammel-Bezeichnung); settings: postemergence spray, rated about two-three weeks after treatment
Outline: as §1

[4] = tested on: CASOB Sicklepod; assay: Postemergence herbicidal evaluation, CASOB; type: in vivo, Cassia obtusifolia, L.; settings: postemergence spray, rated about two-three weeks after treatment
Outline: as §1

[5] = tested on: ECHOG Barnyardgrass; assay: Postemergence herbicidal evaluation, ECHOG; type: in vivo, Echinochloa crus-galli, (L.) Beau; settings: postemergence spray, rated about two-three weeks after treatment
Outline: as §1

[6] = tested on: SETVI Foxtail, Green; assay: Preemergence herbicidal evaluation, SETVI; type: in vivo, Setaria viridis, (L.) Beau; settings: preemergence
Outline: (§2)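 Preemergence soil spray: aqueous acetone, ~0.013–0.800 kg/ha, applied right after sowing (seed/potting-soil mix over ~1 in soil). Greenhouse, routine watering. Scored 4–5 wk post-treatment on a rating scale.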

[7] = tested on: CHEAL Lambsquarters, Common; assay: Postemergence herbicidal evaluation, CHEAL; type: in vivo, Chenopodium album, L.; settings: postemergence spray, rated about two-three weeks after treatment
Outline: as §1

[8] = tested on: GLXMAW Soybean, Williams; assay: Preemergence herbicidal evaluation, GLXMAW; type: in vivo, Glycine max, (L.) Merr. cv Williams; settings: preemergence
Outline: as §2

[9] = tested on: ECHOG Barnyardgrass; assay: Preemergence herbicidal evaluation, ECHOG; type: in vivo, Echinochloa crus-galli, (L.) Beau; settings: preemergence
Outline: as §2

[10] = tested on: ABUTH Velvetleaf; assay: Postemergence herbicidal evaluation, ABUTH; type: in vivo, Abutilon theophrasti, Medic.; settings: postemergence spray, rated about two-three weeks after treatment
Outline: as §1

[11] = tested on: ABUTH Velvetleaf; assay: Preemergence herbicidal evaluation, ABUTH; type: in vivo, Abutilon theophrasti, Medic.; settings: preemergence
Outline: as §2

[12] = tested on: GLXMAW Soybean, Williams; assay: Postemergence herbicidal evaluation, GLXMAW; type: in vivo, Glycine max, (L.) Merr. cv Williams; settings: postemergence spray, rated about two-three weeks after treatment
Outline: as §1

[13] = tested on: AMBEL Ragweed, Common; assay: Preemergence herbicidal evaluation, AMBEL; type: in vivo, Ambrosia artemisifolia, L.; settings: preemergence
Outline: as §2

[14] = tested on: CHEAL Lambsquarters, Common; assay: Preemergence herbicidal evaluation, CHEAL; type: in vivo, Chenopodium album, L.; settings: preemergence
Outline: as §2

[15] = tested on: TRZAWR Wheat, Winter, cv Riband; assay: Preemergence herbicidal evaluation, TRZAWR; type: in vivo, Triticum aestivum; settings: preemergence
Outline: as §2

[16] = tested on: SETVI Foxtail, Green; assay: Postemergence herbicidal evaluation, SETVI; type: in vivo, Setaria viridis, (L.) Beau; settings: postemergence spray, rated about two-three weeks after treatment
Outline: as §1

[17] = tested on: ORYSAT Rice, Tebonnet; assay: Preemergence herbicidal evaluation, ORYSAT; type: in vivo, Oryza sativa, (L.); settings: preemergence
Outline: as §2

[18] = tested on: CASOB Sicklepod; assay: Preemergence herbicidal evaluation, CASOB; type: in vivo, Cassia obtusifolia, L.; settings: preemergence
Outline: as §2

[19] = tested on: GALAP Galium; assay: Preemergence herbicidal evaluation, GALAP; type: in vivo, Galium aparine; settings: preemergence
Outline: as §2

[20] = tested on: IPOHE Morningglory, Ivyleaf; assay: Postemergence herbicidal evaluation, IPOHE; type: in vivo, Ipomoea hederacea, (L.) Jacq.; settings: postemergence spray, rated about two-three weeks after treatment
Outline: as §1

[21] = tested on: ZEAMX Corn, Field; assay: Preemergence herbicidal evaluation, ZEAMX; type: in vivo, Zea mays, L. (Sammel-Bezeichnung); settings: preemergence
Outline: as §2

[22] = tested on: TRZAWR Wheat, Winter, cv Riband; assay: Postemergence herbicidal evaluation, TRZAWR; type: in vivo, Triticum aestivum; settings: postemergence spray, rated about two-three weeks after treatment
Outline: as §1

[23] = tested on: GALAP Galium; assay: Postemergence herbicidal evaluation, GALAP; type: in vivo, Galium aparine; settings: postemergence spray, rated about two-three weeks after treatment
Outline: as §1

[24] = tested on: IPOHE Morningglory, Ivyleaf; assay: Preemergence herbicidal evaluation, IPOHE; type: in vivo, Ipomoea hederacea, (L.) Jacq.; settings: preemergence
Outline: as §2

Structure (SMILES): C=CCOc1ccc(-n2nnc3cc(F)c(-n4c(=O)cc(C(F)(F)F)n(C)c4=O)cc32)c(C)c1 [Example 43]
- Postemergence herbicidal rating AMBEL ([1]; 0.008 kg/ha): 1.0
- Postemergence herbicidal rating AMBEL ([1]; 0.016 kg/ha): 7.0
- Postemergence herbicidal rating AMBEL ([1]; 0.032 kg/ha): 7.0
- Postemergence herbicidal rating AMBEL ([1]; 0.062 kg/ha): 9.0
- Postemergence herbicidal rating ORYSAT ([2]; 0.008 kg/ha): 2.5
- Postemergence herbicidal rating ORYSAT ([2]; 0.016 kg/ha): 2.0
- Postemergence herbicidal rating ORYSAT ([2]; 0.032 kg/ha): 2.0
- Postemergence herbicidal rating ORYSAT ([2]; 0.062 kg/ha): 3.0
- Postemergence herbicidal rating ZEAMX ([3]; 0.008 kg/ha): 4.0
- Postemergence herbicidal rating ZEAMX ([3]; 0.016 kg/ha): 5.0
- Postemergence herbicidal rating ZEAMX ([3]; 0.032 kg/ha): 5.0
- Postemergence herbicidal rating ZEAMX ([3]; 0.062 kg/ha): 5.0
- Postemergence herbicidal rating CASOB ([4]; 0.008 kg/ha): 0.0
- Postemergence herbicidal rating CASOB ([4]; 0.016 kg/ha): 0.0
- Postemergence herbicidal rating CASOB ([4]; 0.032 kg/ha): 0.0
- Postemergence herbicidal rating CASOB ([4]; 0.062 kg/ha): 3.0
- Postemergence herbicidal rating ECHCG ([5]; 0.008 kg/ha): 1.0
- Postemergence herbicidal rating ECHCG ([5]; 0.016 kg/ha): 1.0
- Postemergence herbicidal rating ECHCG ([5]; 0.032 kg/ha): 1.0
- Postemergence herbicidal rating ECHCG ([5]; 0.062 kg/ha): 2.0
- SETVI herbicidal rating ([6]; rate 0.016 kg/ha): 0.0
- SETVI herbicidal rating ([6]; rate 0.032 kg/ha): 1.0
- SETVI herbicidal rating ([6]; rate 0.062 kg/ha): 4.0
- SETVI herbicidal rating ([6]; rate 0.125 kg/ha): 7.0
- Postemergence herbicidal rating CHEAL ([7]; 0.008 kg/ha): 0.0
- Postemergence herbicidal rating CHEAL ([7]; 0.016 kg/ha): 3.0
- Postemergence herbicidal rating CHEAL ([7]; 0.032 kg/ha): 3.0
- Postemergence herbicidal rating CHEAL ([7]; 0.062 kg/ha): 4.0
- GLXMAW herbicidal rating ([8]; rate 0.016 kg/ha): 1.0
- GLXMAW herbicidal rating ([8]; rate 0.032 kg/ha): 1.0
- GLXMAW herbicidal rating ([8]; rate 0.062 kg/ha): 0.0
- GLXMAW herbicidal rating ([8]; rate 0.125 kg/ha): 1.0
- ECHCG herbicidal rating ([9]; rate 0.016 kg/ha): 0.0
- ECHCG herbicidal rating ([9]; rate 0.032 kg/ha): 0.0
- ECHCG herbicidal rating ([9]; rate 0.062 kg/ha): 0.0
- ECHCG herbicidal rating ([9]; rate 0.125 kg/ha): 1.0
- Postemergence herbicidal rating ABUTH ([10]; 0.008 kg/ha): 9.0
- Postemergence herbicidal rating ABUTH ([10]; 0.016 kg/ha): 9.0
- Postemergence herbicidal rating ABUTH ([10]; 0.032 kg/ha): 9.0
- Postemergence herbicidal rating ABUTH ([10]; 0.062 kg/ha): 9.0
- ABUTH herbicidal rating ([11]; rate 0.016 kg/ha): 0.0
- ABUTH herbicidal rating ([11]; rate 0.032 kg/ha): 1.0
- ABUTH herbicidal rating ([11]; rate 0.062 kg/ha): 9.0
- ABUTH herbicidal rating ([11]; rate 0.125 kg/ha): 8.0
- Postemergence herbicidal rating GLXMAW ([12]; 0.008 kg/ha): 5.0
- Postemergence herbicidal rating GLXMAW ([12]; 0.016 kg/ha): 5.0
- Postemergence herbicidal rating GLXMAW ([12]; 0.032 kg/ha): 5.5
- Postemergence herbicidal rating GLXMAW ([12]; 0.062 kg/ha): 5.5
- AMBEL herbicidal rating ([13]; rate 0.016 kg/ha): 0.0
- AMBEL herbicidal rating ([13]; rate 0.032 kg/ha): 0.0
- AMBEL herbicidal rating ([13]; rate 0.062 kg/ha): 0.0
- AMBEL herbicidal rating ([13]; rate 0.125 kg/ha): 0.0
- CHEAL herbicidal rating ([14]; rate 0.016 kg/ha): 9.0
- CHEAL herbicidal rating ([14]; rate 0.032 kg/ha): 9.0
- CHEAL herbicidal rating ([14]; rate 0.062 kg/ha): 9.0
- CHEAL herbicidal rating ([14]; rate 0.125 kg/ha): 9.0
- TRZAWR herbicidal rating ([15]; rate 0.016 kg/ha): 0.0
- TRZAWR herbicidal rating ([15]; rate 0.032 kg/ha): 0.0
- TRZAWR herbicidal rating ([15]; rate 0.062 kg/ha): 0.0
- TRZAWR herbicidal rating ([15]; rate 0.125 kg/ha): 1.0
- Postemergence herbicidal rating SETVI ([16]; 0.008 kg/ha): 0.0
- Postemergence herbicidal rating SETVI ([16]; 0.016 kg/ha): 1.0
- Postemergence herbicidal rating SETVI ([16]; 0.032 kg/ha): 9.0
- Postemergence herbicidal rating SETVI ([16]; 0.062 kg/ha): 9.0
- ORYSAT herbicidal rating ([17]; rate 0.016 kg/ha): 0.0
- ORYSAT herbicidal rating ([17]; rate 0.032 kg/ha): 0.0
- ORYSAT herbicidal rating ([17]; rate 0.062 kg/ha): 0.0
- ORYSAT herbicidal rating ([17]; rate 0.125 kg/ha): 0.0
- CASOB herbicidal rating ([18]; rate 0.016 kg/ha): 0.0
- CASOB herbicidal rating ([18]; rate 0.032 kg/ha): 0.0
- CASOB herbicidal rating ([18]; rate 0.062 kg/ha): 0.0
- CASOB herbicidal rating ([18]; rate 0.125 kg/ha): 0.0
- GALAP herbicidal rating ([19]; rate 0.016 kg/ha): 0.0
- GALAP herbicidal rating ([19]; rate 0.032 kg/ha): 0.0
- GALAP herbicidal rating ([19]; rate 0.062 kg/ha): 0.0
- GALAP herbicidal rating ([19]; rate 0.125 kg/ha): 0.0
- Postemergence herbicidal rating IPOHE ([20]; 0.008 kg/ha): 9.0
- Postemergence herbicidal rating IPOHE ([20]; 0.016 kg/ha): 9.0
- Postemergence herbicidal rating IPOHE ([20]; 0.032 kg/ha): 9.0
- Postemergence herbicidal rating IPOHE ([20]; 0.062 kg/ha): 9.0
- ZEAMX herbicidal rating ([21]; rate 0.016 kg/ha): 0.0
- ZEAMX herbicidal rating ([21]; rate 0.032 kg/ha): 0.0
- ZEAMX herbicidal rating ([21]; rate 0.062 kg/ha): 0.0
- ZEAMX herbicidal rating ([21]; rate 0.125 kg/ha): 2.0
- Postemergence herbicidal rating TRZAWR ([22]; 0.008 kg/ha): 3.0
- Postemergence herbicidal rating TRZAWR ([22]; 0.016 kg/ha): 3.0
- Postemergence herbicidal rating TRZAWR ([22]; 0.032 kg/ha): 3.0
- Postemergence herbicidal rating TRZAWR ([22]; 0.062 kg/ha): 3.0
- Postemergence herbicidal rating GALAP ([23]; 0.008 kg/ha): 0.0
- Postemergence herbicidal rating GALAP ([23]; 0.016 kg/ha): 0.0
- Postemergence herbicidal rating GALAP ([23]; 0.032 kg/ha): 1.0
- Postemergence herbicidal rating GALAP ([23]; 0.062 kg/ha): 1.0
- IPOHE herbicidal rating ([24]; rate 0.016 kg/ha): 0.0
- IPOHE herbicidal rating ([24]; rate 0.032 kg/ha): 0.0
- IPOHE herbicidal rating ([24]; rate 0.062 kg/ha): 0.0
- IPOHE herbicidal rating ([24]; rate 0.125 kg/ha): 0.0
